Data taken from patent publication US8569242B2, “Method of treating degenerative disorders of the nervous system” (The Regents of the University of California, priority 2005, dated 2013).
Values joined by “and” are separate entries in the source; they are usually repeats but may differ in a detail not shown here. Equal values may be shown once.

Key:
primary microglia = assay: Morphometry of microglia activation (Isolectin B4 staining, cell size); type: cell-based, mouse
Protocol: Culture of primary microglia cells. Microglia were isolated from cultures of mixed cortical cells as described (59). In brief, cortices from P1 mice were isolated and digested with trypsin (0.4%) for 20 minutes at 37° C. Cells from 4 pups were plated onto PDL-coated 75 cm2 tissue-culture flasks. The culture medium (DMEM, 10% heat-inactivated FBS, and 1% Pen/Strep) was changed on day 2. After 2-3 weeks in culture, the microglia were removed by the addition of 12 mM lidocaine (Sigma-Aldrich, St. Louis, Mo.) and orbital shaking (180 rpm) for 20 minutes at 37° C. The cells were centrifuged (350×G) and the pellet was resuspended in complete medium and plated onto PDL-coated tissue culture dishes. Microglia cell cultures were >95% pure as determined with three different markers, IsoB4, IBA-1 and CD11b. To immobilize fibrinogen, tissue culture dishes were incubated overnight with 50 μg/mL fibrinogen (Calbiochem, San Diego, Calif.) in 20 mM Tris (pH 7.5) and 0.1 M NaCl at 37° C. for all fibrinogen treatments. To serve as positive controls, LPS (Sigma-Aldrich, St. Louis, Mo.) was added to the media at 1 μg/mL.
Morphometry. Primary microglia were used for all morphologic analysis. Cells were plated on coated fibrinogen or in the presence of LPS for 72 hours. Microglia were fixed with methanol and immunostained with Isolectin B4 (1:300, Sigma-Aldrich, St. Louis, Mo.). Activated microglia were quantificated as those cells larger than 2,000 μm^2. Blocking experiments involved the daily administration of rat anti-CD11b (10 μg/mL, eBioscience, San Diego, Calif.), γ^377-395 peptide (200 μM) or rat IgG (10 μg/mL, Jackson ImmunoResearch Laboratories, West Grove, Pa.). Results were obtained from six separate experiments performed in duplicates. 250 cells per condition were counted for each individual experiment. Statistical calculations were made by using Student's t test.

[1] = test system: primary murine microglia and a murine microglia cell line (BV2); assay: Vybrant phagocytosis assay in microglia; type: cell-based, mouse; conditions: fluorescent E. coli; stimulation with immobilized fibrinogen or LPS
Protocol: Phagocytosis assay. Phagocytosis assays were performed on both primary murine microglia and a murine microglia cell line (BV2). BV2 cells are an established cell line used to study microglia responses (46). BV2 cells were routinely passaged in DMEM, 20% heat inactivated FBS, and 1% Pen/Strep. Microglia phagocytosis was assessed using the Vybrant phagocytosis assay kit (Molecular Probes, Eugene, Oreg.) according to the manufacturer's recommendations. Microglia were cultured in 96-well plates at 5,000 cells/well for 36 hours at 37° C. Blocking experiments included the addition of LY294002 (1 μM, Cell Signaling, Beverly, Mass.), rat anti-CD11b ([…], eBioscience, San Diego, Calif.), rat anti-TLR4 (10 μg/mL, eBioscience, San Diego, Calif.) or rat IgG (10 μg/mL, Jackson ImmunoResearch Laboratories, West Grove, Pa.) to the media. Results were obtained from four separate experiments performed in triplicates. Statistical calculations were made by using Student's t-test.

RhoA = RhoA activation (GST-Rhotekin pull-down, immunoblot) in microglia; type: cell-based, mouse; conditions: fibrinogen 6 hours, LPS 10 minutes; densitometry
Protocol: (§1) Immunoblots. Western blots were performed using standard protocols (55). Microglia were serum-starved overnight and plated on fibrinogen or with LPS for 6 hours. Lysates were electrophoresed on 4-12% gradient SDS-PAGE gels and probed with phospho and total Akt antibodies (1:1000, Cell Signaling, Beverly, Mass.). RhoA activation was performed as described (60). Briefly, 2×107 microglia were plated on fibrinogen for 6 hours or with LPS for 10 minutes. Cell lysates were incubated with GST-Rhotekin agarose beads (kindly provided by Dr. Joan Heller Brown, UCSD) for 45 minutes at 4° C. The beads were washed, resuspended in Laemmli sample buffer, and electophoresed on a 15% SDS-PAGE gel. Activated and total Rho were detected with mouse anti-RhoA (1:500, Santa Cruz Biotechnology, Santa Cruz, Calif.). Densitometry was performed using the NIH Scion Image software using three blots from three separate experiments.

Akt = Akt phosphorylation immunoblot in microglia; type: cell-based, mouse; conditions: fibrinogen or LPS 6 hours; densitometry
Protocol: as §1

fibrin = molecular target: T1, fibrin (Mus musculus, UniProt E9PV24+Q8K0E8+Q8VCM7); assay: In vitro fibrin polymerization turbidity assay in plasma; type: biochemical; conditions: citrate plasma, bovine thrombin 0.2 U/ml, OD350
T1 construct: from tissue; host or cells: citrated mouse plasma, diluted tenfold
T1 sequence (Q8VCM7 26-436): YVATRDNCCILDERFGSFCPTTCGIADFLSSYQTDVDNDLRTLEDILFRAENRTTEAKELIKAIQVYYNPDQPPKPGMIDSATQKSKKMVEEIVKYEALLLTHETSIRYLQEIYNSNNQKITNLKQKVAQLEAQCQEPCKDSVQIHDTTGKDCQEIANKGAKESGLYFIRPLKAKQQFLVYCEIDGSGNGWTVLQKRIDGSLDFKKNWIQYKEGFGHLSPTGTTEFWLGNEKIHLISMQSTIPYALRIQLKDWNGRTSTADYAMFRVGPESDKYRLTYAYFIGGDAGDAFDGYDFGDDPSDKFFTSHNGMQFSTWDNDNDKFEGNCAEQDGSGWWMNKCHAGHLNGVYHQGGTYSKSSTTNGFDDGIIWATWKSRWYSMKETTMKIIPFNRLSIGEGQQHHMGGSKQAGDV
T1 sequence (E9PV24 37-789 limits assumed): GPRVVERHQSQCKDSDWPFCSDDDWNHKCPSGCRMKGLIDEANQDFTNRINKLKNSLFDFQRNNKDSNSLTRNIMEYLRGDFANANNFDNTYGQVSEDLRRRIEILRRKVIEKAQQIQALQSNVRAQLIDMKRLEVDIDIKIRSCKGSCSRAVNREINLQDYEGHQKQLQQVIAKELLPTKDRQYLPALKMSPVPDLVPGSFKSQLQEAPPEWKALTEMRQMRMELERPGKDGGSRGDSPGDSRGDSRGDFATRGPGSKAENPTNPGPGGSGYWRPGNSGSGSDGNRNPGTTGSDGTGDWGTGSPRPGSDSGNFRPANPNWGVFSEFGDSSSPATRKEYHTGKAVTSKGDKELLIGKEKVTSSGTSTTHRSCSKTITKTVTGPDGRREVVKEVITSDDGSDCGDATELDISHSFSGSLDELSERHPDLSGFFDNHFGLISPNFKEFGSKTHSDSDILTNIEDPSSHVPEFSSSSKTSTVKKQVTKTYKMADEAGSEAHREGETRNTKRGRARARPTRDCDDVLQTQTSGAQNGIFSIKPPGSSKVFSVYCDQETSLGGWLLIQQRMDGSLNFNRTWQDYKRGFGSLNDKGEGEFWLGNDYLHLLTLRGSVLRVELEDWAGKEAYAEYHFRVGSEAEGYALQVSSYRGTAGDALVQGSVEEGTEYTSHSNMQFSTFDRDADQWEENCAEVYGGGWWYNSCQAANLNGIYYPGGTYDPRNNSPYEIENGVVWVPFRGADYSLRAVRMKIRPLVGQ
T1 sequence (Q8K0E8 35-481 limits assumed): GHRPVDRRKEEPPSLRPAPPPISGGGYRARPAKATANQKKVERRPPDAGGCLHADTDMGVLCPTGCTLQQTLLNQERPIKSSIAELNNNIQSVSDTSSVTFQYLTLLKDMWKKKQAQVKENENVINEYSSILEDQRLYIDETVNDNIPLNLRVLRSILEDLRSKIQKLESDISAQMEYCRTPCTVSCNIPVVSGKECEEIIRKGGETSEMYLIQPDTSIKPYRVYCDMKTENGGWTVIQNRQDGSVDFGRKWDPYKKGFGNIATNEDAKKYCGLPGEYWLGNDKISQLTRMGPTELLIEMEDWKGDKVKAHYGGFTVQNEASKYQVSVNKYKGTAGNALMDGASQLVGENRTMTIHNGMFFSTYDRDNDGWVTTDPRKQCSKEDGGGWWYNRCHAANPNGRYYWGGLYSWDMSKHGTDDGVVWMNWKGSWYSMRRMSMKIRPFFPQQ
Protocol: Hematological Analyses. Citrated plasma was prepared from mice administered intranasally 30 μg or 90 μg of γ^377-395 peptide or saline control daily for seven days. Plasma clotting times were measured by combining 10 μl of citrated plasma with 10 μl of 2 U/ml bovine thrombin (Enzyme Research Laboratories, South Bend, Ind., USA) and 40 mM. CaCl2 in a weigh boatfloating in a 37° C. water bath. Time to clot was determined by mixing with a toothpick. Plasma thrombin times were established as described previously (15). Fibrin polymerization was evaluated by standard turbidity assays using plasma. Briefly, citrate plasma (diluted tenfold in 20 mM HEPES, pH 7.4, containing 0.15 M NaCl and 5 mM-amino caproic acid) was combined with bovine thrombin (final concentration 0.2 U/ml; Enzyme Research Laboratories, South Bend, Ind., USA), and Ca^2+ (10 mM), and OD350 measurements were taken every 30 seconds.

Substance	changes in microglia morphology (primary microglia; soluble, not immobilized, fibrinogen, data not shown)	% of activated microglia (primary microglia; stimulation with immobilized fibrinogen alone, 72 hours, activated = cells larger than 2,000 μm^2)	increase in phagocytosis as compared to untreated controls [1]	increase of active RhoA (RhoA)	increase in Akt phosphorylation (Akt)	effect on fibrin polymerization (fibrin)	effect on fibrin polymerization (fibrin; listed as GPRP)
Fibrinogen	did not induce changes in microglia morphology	85.5±1.4% and 71±4.9%	65.3%	1.9 fold	24 fold		
Lipopolysaccharide [LPS, reference compound]			39.1%	2.4 fold	34 fold		
GPRP [GPRP peptide, reference compound]						inhibits	significantly attenuated
